Source: ChEMBL document CHEMBL1157548, “Mitochondrial biotransformation of omega-(phenoxy)alkanoic acids, 3-(phenoxy)acrylic acids, and omega-(1-methyl-1H-imidazol-2-ylthio)alkanoic acids: a prodrug strategy for targeting cytoprotective antioxidants to mitochondria” (Bioorg Med Chem, 2010)
Active and inactive are the calls of the source. The calls are words filed in the database; no cut-off is given here.

Experiments:
Cardiac muscle cell [1] = test: Cytoprotective effect in rat cardiomyocytes under hypoxia-reoxygenation condition assessed as cell viability at 1 uM by trypan blue exclusion test; format: functional, cell-based
Cardiac muscle cell [2] = test: Cytoprotective effect in rat cardiomyocytes under hypoxia-reoxygenation condition assessed as cell viability at 1 uM by trypan blue exclusion test in presence of etomoxir; format: functional, cell-based

Structure (SMILES) | Activity (Cardiac muscle cell [1]) | Activity (Cardiac muscle cell [2])
Cn1ccnc1SCCC(=O)O | Active | inactive
Cn1ccnc1S | inactive | –
Cn1ccnc1SCCCCC(=O)O | Active | inactive
Cc1cccc(C)c1OCCC(=O)O | Active | inactive
Cc1cccc(C)c1O/C=C/C(=O)O | Active | inactive
